Numbers after ± are expanded uncertainties.
Details: for viscosity / mass density: 101.33 kPa, Liquid; for viscosity: Falling or rolling sphere viscometry; for mass density: Vibrating tube method; for Normal melting temperature: Crystal, DTA

OCC1CCCCC1 [cyclohexylmethanol]
viscosity (293.15 K): 36.96 ± 0.79 mPa·s | mass density (293.15 K): 929.96 ± 1.9 kg/m3 | viscosity (298.15 K): 28.35 ± 0.61 mPa·s | mass density (298.15 K): 926.43 ± 1.9 kg/m3 | viscosity (303.15 K): 22.04 ± 0.47 mPa·s | mass density (303.15 K): 922.87 ± 1.9 kg/m3 | viscosity (308.15 K): 17.32 ± 0.37 mPa·s | mass density (308.15 K): 919.28 ± 1.8 kg/m3 | viscosity (313.15 K): 13.83 ± 0.3 mPa·s | mass density (313.15 K): 915.66 ± 1.8 kg/m3 | viscosity (318.15 K): 11.14 ± 0.24 mPa·s | mass density (318.15 K): 912 ± 1.8 kg/m3 | viscosity (323.15 K): 9.099 ± 0.2 mPa·s | mass density (323.15 K): 908.31 ± 1.8 kg/m3 | viscosity (328.15 K): 7.521 ± 0.16 mPa·s | mass density (328.15 K): 904.57 ± 1.8 kg/m3 | viscosity (333.15 K): 6.283 ± 0.14 mPa·s | mass density (333.15 K): 900.78 ± 1.8 kg/m3

CCCCCCCO [heptan-1-ol]
viscosity (293.15 K): 6.89 ± 0.15 mPa·s | mass density (293.15 K): 822.24 ± 1.6 kg/m3 | viscosity (298.15 K): 5.805 ± 0.12 mPa·s | mass density (298.15 K): 818.74 ± 1.6 kg/m3 | viscosity (303.15 K): 4.941 ± 0.11 mPa·s | mass density (303.15 K): 815.22 ± 1.6 kg/m3 | viscosity (308.15 K): 4.233 ± 0.09 mPa·s | mass density (308.15 K): 811.68 ± 1.6 kg/m3 | viscosity (313.15 K): 3.648 ± 0.077 mPa·s | mass density (313.15 K): 808.11 ± 1.6 kg/m3 | viscosity (318.15 K): 3.165 ± 0.067 mPa·s | mass density (318.15 K): 804.52 ± 1.6 kg/m3 | viscosity (323.15 K): 2.762 ± 0.059 mPa·s | mass density (323.15 K): 800.88 ± 1.6 kg/m3 | viscosity (328.15 K): 2.423 ± 0.051 mPa·s | mass density (328.15 K): 797.2 ± 1.6 kg/m3 | viscosity (333.15 K): 2.137 ± 0.045 mPa·s | mass density (333.15 K): 793.49 ± 1.6 kg/m3 | Normal melting temperature: -34.10 ± 6 °C

CCCCCCCCCCCC [dodecane]
viscosity (293.15 K): 1.485 ± 0.032 mPa·s | mass density (293.15 K): 748.82 ± 1.5 kg/m3 | viscosity (298.15 K): 1.359 ± 0.029 mPa·s | mass density (298.15 K): 745.2 ± 1.5 kg/m3 | viscosity (303.15 K): 1.25 ± 0.027 mPa·s | mass density (303.15 K): 741.57 ± 1.5 kg/m3 | viscosity (308.15 K): 1.155 ± 0.025 mPa·s | mass density (308.15 K): 737.94 ± 1.5 kg/m3 | viscosity (313.15 K): 1.073 ± 0.023 mPa·s | mass density (313.15 K): 734.3 ± 1.5 kg/m3 | viscosity (318.15 K): 0.998 ± 0.022 mPa·s | mass density (318.15 K): 730.64 ± 1.5 kg/m3 | viscosity (323.15 K): 0.932 ± 0.02 mPa·s | mass density (323.15 K): 726.98 ± 1.5 kg/m3 | viscosity (328.15 K): 0.873 ± 0.019 mPa·s | mass density (328.15 K): 723.31 ± 1.5 kg/m3 | viscosity (333.15 K): 0.819 ± 0.018 mPa·s | mass density (333.15 K): 719.64 ± 1.4 kg/m3 | Normal melting temperature: -8.20 ± 6 °C

CC1CCCCC1 [methylcyclohexane]
viscosity (293.15 K): 0.727 ± 0.016 mPa·s | mass density (293.15 K): 769.33 ± 1.5 kg/m3 | viscosity (298.15 K): 0.681 ± 0.015 mPa·s | mass density (298.15 K): 765 ± 1.5 kg/m3 | viscosity (303.15 K): 0.64 ± 0.014 mPa·s | mass density (303.15 K): 760.67 ± 1.5 kg/m3 | viscosity (308.15 K): 0.604 ± 0.013 mPa·s | mass density (308.15 K): 756.32 ± 1.5 kg/m3 | viscosity (313.15 K): 0.571 ± 0.012 mPa·s | mass density (313.15 K): 751.95 ± 1.5 kg/m3 | viscosity (318.15 K): 0.542 ± 0.012 mPa·s | mass density (318.15 K): 747.56 ± 1.5 kg/m3 | viscosity (323.15 K): 0.515 ± 0.011 mPa·s | mass density (323.15 K): 743.15 ± 1.5 kg/m3 | viscosity (328.15 K): 0.491 ± 0.011 mPa·s | mass density (328.15 K): 738.73 ± 1.5 kg/m3 | viscosity (333.15 K): 0.469 ± 0.01 mPa·s | mass density (333.15 K): 734.28 ± 1.5 kg/m3 | Normal melting temperature: -125.30 ± 6 °C

Reference: the NIST ThermoML archive (doi:10.1021/acs.jced.6b00688)
